# Results reported in PMC12655637, “Design, Synthesis, and Mechanistic Study of Novel Ciprofloxacin/Thiazole Chalcone Hybrids as Potential Anticancer Agents” (Pharmaceuticals, 2025).
# Columns and labels:
# Assay in all cases: NCI-60 screening, one-dose (10 µM) and five-dose, SRB
# CCRF-CEM = type: cell-based, human; details: Homo sapiens, 10 μM, Leukemia, read-out: Growth percentage
# K-562 = type: cell-based, human; details: Homo sapiens, K562, 10 μM; K-562, Leukemia; read-out: Growth percentage
# EKVX = type: cell-based, human; details: Homo sapiens, 10 μM, Non-Small-Cell Lung Cancer, read-out: Growth percentage
# HOP-92 = type: cell-based, human; details: Homo sapiens; 10 μM; HOP-92, Non-Small-Cell Lung Cancer; read-out: Growth percentage
# NCI-H226 = type: cell-based, human; details: Homo sapiens; 10 μM; NCI-H226, Non-Small-Cell Lung Cancer; read-out: Growth percentage
# NCI-H522 = type: cell-based, human; details: Homo sapiens; 10 μM; NCI-H522, Non-Small-Cell Lung Cancer; read-out: Growth percentage
# COLO 205 = type: cell-based, human; details: Homo sapiens; 10 μM; COLO 205, Colon Cancer; read-out: Growth percentage
# HCC-2998 = type: cell-based, human; details: Homo sapiens; 10 μM; HCC-2998, Colon Cancer; read-out: Growth percentage
# HCT-15 = type: cell-based, human; details: Homo sapiens; 10 μM; HCT-15, Colon Cancer; read-out: Growth percentage
# KM12 = type: cell-based, human; details: Homo sapiens, KM12, 10 μM; KM12, Colon Cancer; read-out: Growth percentage
# SF-268 = type: cell-based, human; details: Homo sapiens; 10 μM; SF-268, CNS Cancer; read-out: Growth percentage
# SF-295 = type: cell-based, human; details: Homo sapiens; 10 μM; SF-295, CNS Cancer; read-out: Growth percentage
# SF-539 = type: cell-based, human; details: Homo sapiens, SF-539, 10 μM; SF-539, CNS Cancer; read-out: Growth percentage
# SNB-19 = type: cell-based; details: Homo sapiens; 10 μM; SNB-19, CNS Cancer; read-out: Growth percentage
# SNB-75 = type: cell-based, human; details: Homo sapiens; 10 μM; SNB-75, CNS Cancer; read-out: Growth percentage
# LOX IMVI = type: cell-based, human; details: Homo sapiens, 10 μM, Melanoma, read-out: Growth percentage
# MDA-MB-435 = type: cell-based; details: Homo sapiens, MDA-MB-435, read-out: Growth percentage, 10 μM; MDA-MB-435, Melanoma
# SK-MEL-2 = type: cell-based, human; details: Homo sapiens; 10 μM; SK-MEL-2, Melanoma; read-out: Growth percentage
# SK-MEL-28 = type: cell-based, human; details: Homo sapiens; 10 μM; SK-MEL-28, Melanoma; read-out: Growth percentage
# SK-MEL-5 = type: cell-based, human; details: Homo sapiens; 10 μM; SK-MEL-5, Melanoma; read-out: Growth percentage
# OVCAR-3 = type: cell-based; details: Homo sapiens; 10 μM; OVCAR-3, Ovarian Cancer; read-out: Growth percentage
# OVCAR-4 = type: cell-based, human; details: Homo sapiens; 10 μM; OVCAR-4, Ovarian Cancer; read-out: Growth percentage
# OVCAR-5 = type: cell-based, human; details: 10 μM; OVCAR-5, Ovarian Cancer
# A498 = type: cell-based; details: Homo sapiens, A498, 10 μM; A498, Renal Cancer; read-out: Growth percentage
# ACHN = type: cell-based, human; details: Homo sapiens, 10 μM, Renal Cancer, read-out: Growth percentage
# CAKI-1 = type: cell-based; details: Homo sapiens; 10 μM; CAKI-1, Renal Cancer; read-out: Growth percentage
# TK-10 = type: cell-based, human; details: Homo sapiens; 10 μM; TK-10, Renal Cancer; read-out: Growth percentage
# DU-145 = type: cell-based, human; details: Homo sapiens; 10 μM; DU-145, Prostate Cancer; read-out: Growth percentage
# MDA-MB231/ATCC = type: cell-based; details: 10 μM; MDA-MB231/ATCC, Breast Cancer
# HS 578T = type: cell-based, human; details: Homo sapiens, 10 μM, Breast Cancer, read-out: Growth percentage
# BT-549 = type: cell-based; details: Homo sapiens; 10 μM; BT-549, Breast Cancer; read-out: Growth percentage
Compound,activity at 10 µM (CCRF-CEM),activity at 10 µM (K-562),activity at 10 µM (EKVX),activity at 10 µM (HOP-92),activity at 10 µM (NCI-H226),activity at 10 µM (NCI-H522),activity at 10 µM (COLO 205),activity at 10 µM (HCC-2998),activity at 10 µM (HCT-15),activity at 10 µM (KM12),activity at 10 µM (SF-268),activity at 10 µM (SF-295),activity at 10 µM (SF-539),activity at 10 µM (SNB-19),activity at 10 µM (SNB-75),activity at 10 µM (LOX IMVI),activity at 10 µM (MDA-MB-435),activity at 10 µM (SK-MEL-2),activity at 10 µM (SK-MEL-28),activity at 10 µM (SK-MEL-5),further results
"Cc1nc(SCC(=O)N2CCN(c3cc4c(cc3F)c(=O)c(C(=O)O)cn4C3CC3)CC2)sc1C(=O)/C=C/c1ccc(N(C)C)cc1 [Compound 4i, (E)-1-Cyclopropyl-7-(4-(2-((5-(3-(4-(dimethylamino)phenyl)acryloyl)-4-methylthiazol-2-yl)thio)acetyl)piperazin-1-yl)-6-fluoro-4-oxo-1,4-dihydroquinoline-3-carboxylic Acid]",90.6%,61.3%,110%,91.7%,100%,78.5%,117%,44.4%,83.2%,79.4%,140%,91.4%,74.4%,88.6%,104%,24.6%,26.6%,85.5%,95.9%,89.8%,activity at 10 µM (OVCAR-3): 172%; activity at 10 µM (OVCAR-4): 102%; Growth percentage (OVCAR-5): 102.5%; activity at 10 µM (A498): 126%; activity at 10 µM (ACHN): 97.7%; activity at 10 µM (CAKI-1): 81.7%; activity at 10 µM (TK-10): 91.8%; activity at 10 µM (DU-145): 147%; Growth percentage (MDA-MB231/ATCC): 73.1%; activity at 10 µM (HS 578T): 81.4%; activity at 10 µM (BT-549): 12.9%
"COc1ccc(/C=C/C(=O)c2sc(SCC(=O)N3CCN(c4cc5c(cc4F)c(=O)c(C(=O)O)cn5C4CC4)CC3)nc2C)cc1 [Compound 4j, (E)-1-Cyclopropyl-6-fluoro-7-(4-(2-((5-(3-(4-methoxyphenyl)acryloyl)-4-methylthiazol-2-yl)thio)acetyl)piperazin-1-yl)-4-oxo-1,4-dihydroquinoline-3-carboxylic Acid]",110%,98.3%,103%,105%,102%,99%,106%,100%,104%,112%,148%,101%,97.5%,103%,86.2%,97.9%,108%,104%,114%,99.7%,activity at 10 µM (OVCAR-3): 174%; activity at 10 µM (OVCAR-4): 101%; Growth percentage (OVCAR-5): 110.0%; activity at 10 µM (A498): 117%; activity at 10 µM (ACHN): 97.4%; activity at 10 µM (CAKI-1): 94.9%; activity at 10 µM (TK-10): 102%; activity at 10 µM (DU-145): 113%; Growth percentage (MDA-MB231/ATCC): 94.8%; activity at 10 µM (HS 578T): 96.4%; activity at 10 µM (BT-549): 102%
